What was measured:
[1] = test system: H3K9me2 in MDA-MB-231 cells; test: MDA-MB-231 H3K9me2 in-cell western assay; assay type: cell-based; settings: Homo sapiens, read-out: EHMT2 ICW (IC50 μM)
Outline: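 MDA-MB-231 cells (3,000/well) exposed to compound for two consecutive 48 h periods at 37 °C, then fixed and stained for H3K9me2, with DRAQ5 as DNA stain and infrared read at 700/800 nm. Percent inhibition was set between DMSO and UNC0638 control wells. IC50 came from triplicate dose–response fits with a four-parameter model, top 100%, bottom 0%.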

EHMT1 = molecular target: T1, EHMT1 (Homo sapiens, UniProt Q9H9B1); test: EHMT1 PEP (EHMT1 peptide enzyme assay); assay type: biochemical; settings: peptide substrate enzyme assay
T1 sequence (Q9H9B1 1-1298): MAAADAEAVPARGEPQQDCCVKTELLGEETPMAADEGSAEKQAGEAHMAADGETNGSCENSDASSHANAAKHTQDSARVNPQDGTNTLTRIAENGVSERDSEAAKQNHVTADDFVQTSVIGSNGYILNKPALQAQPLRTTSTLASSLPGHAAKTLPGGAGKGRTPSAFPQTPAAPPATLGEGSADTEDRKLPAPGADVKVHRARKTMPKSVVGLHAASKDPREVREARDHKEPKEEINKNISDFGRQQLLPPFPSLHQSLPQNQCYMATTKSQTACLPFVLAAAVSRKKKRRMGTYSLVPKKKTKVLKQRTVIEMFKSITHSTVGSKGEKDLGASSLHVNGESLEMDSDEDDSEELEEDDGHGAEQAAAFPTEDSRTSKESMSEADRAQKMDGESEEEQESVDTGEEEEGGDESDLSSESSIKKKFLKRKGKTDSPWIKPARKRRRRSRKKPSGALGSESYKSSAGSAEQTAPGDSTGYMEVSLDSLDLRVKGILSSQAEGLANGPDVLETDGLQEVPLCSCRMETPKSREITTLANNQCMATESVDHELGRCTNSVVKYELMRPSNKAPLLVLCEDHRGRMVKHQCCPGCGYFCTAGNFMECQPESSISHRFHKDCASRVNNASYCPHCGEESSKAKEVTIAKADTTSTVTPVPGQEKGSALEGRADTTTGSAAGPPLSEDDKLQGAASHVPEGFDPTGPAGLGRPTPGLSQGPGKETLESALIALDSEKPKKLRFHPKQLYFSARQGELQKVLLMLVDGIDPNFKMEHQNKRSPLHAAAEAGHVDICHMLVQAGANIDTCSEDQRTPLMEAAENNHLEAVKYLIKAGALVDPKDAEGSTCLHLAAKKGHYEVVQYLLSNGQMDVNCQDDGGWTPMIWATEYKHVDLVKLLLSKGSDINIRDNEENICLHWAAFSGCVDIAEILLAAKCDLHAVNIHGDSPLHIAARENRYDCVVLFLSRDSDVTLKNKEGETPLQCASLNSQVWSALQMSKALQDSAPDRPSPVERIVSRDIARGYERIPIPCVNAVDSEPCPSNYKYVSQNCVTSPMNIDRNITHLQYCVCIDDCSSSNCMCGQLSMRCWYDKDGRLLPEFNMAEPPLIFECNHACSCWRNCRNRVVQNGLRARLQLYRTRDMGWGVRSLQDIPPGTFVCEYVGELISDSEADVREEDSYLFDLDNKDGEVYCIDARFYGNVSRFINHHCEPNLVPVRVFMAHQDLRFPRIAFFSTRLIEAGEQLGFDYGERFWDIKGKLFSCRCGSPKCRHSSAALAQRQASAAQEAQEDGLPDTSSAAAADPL

| IC50 [1] [µM] | IC50 (EHMT1) [µM] | SMILES |
| --- | --- | --- |
| > 10 | 1 to 10 | CNc1cc(C)nc(Nc2ccc(OC)c(-c3cc4cnccn4n3)c2)n1 [Compound 93] |
| 0.1 to 1 | 0.1 to 1 | CNc1cc(C)nc(Nc2ccc(OC)c(-n3cc(C4CCCN4C)nn3)c2)n1 (stereo not shown) [Compound 136] |
| 0.1 to 1 | < 0.1 | CNc1cc(C)nc(Nc2ccc(OC)c(-n3cc4c(n3)CCN(C)C4)c2)n1 [Compound 2] |
| 1 to 10 | 0.1 to 1 | CNc1cc(C)nc(Nc2ccc(OC)c(-n3cc4c(n3)CCN(C3CC3)C4)c2)n1 [Compound 82] |
| > 10 | 0.1 to 1 | CNc1cc(C)nc(Nc2cnc(OC)c(-n3cc4c(n3)CCNC4)c2)n1 [Compound 50] |
| 1 to 10 | 0.1 to 1 | CNc1cc(C)nc(Nc2ccc(OC)c(-n3cc(CN4CCCC4)cn3)c2)n1 [Compound 5, 2-N-[4-methoxy-3-[4-(pyrrolidin-1-ylmethyl)-1H-pyrazol-1-yl]phenyl]-4-N,6-dimethylpyrimidine-2,4-diamine] |
| 1 to 10 | 0.1 to 1 | CCN1CCc2nn(-c3cc(Nc4nc(C)cc(NC)n4)ccc3OC)cc2C1 [Compound 70] |
| > 10 | 1 to 10 | CNc1cc(C)nc(Nc2ccc(OC)c(-n3cc4cc(C)ccc4n3)c2)n1 [Compound 144] |
| 1 to 10 | > 10 | CNc1cc(C)nc(Nc2ccc(OC)c(-n3cc4c(OC)nccc4n3)c2)n1 [Compound 100] |
| 1 to 10 | 1 to 10 | CNc1cc(C)nc(Nc2ccc(OC)c(-n3ccc(CN4CCCC4)n3)c2)n1 [Compound 4, trifluoroacetic acid] |
| 0.1 to 1 | < 0.1 | CNc1cc(C)nc(Nc2cnc(OC)c(-n3cc(CN(C)C)cn3)c2)n1 [Compound 74] |

From patent US20220235065A1 (Epizyme, Inc., priority 2016, published 2022)
